Experimental data: US20090155395A1 (SAGITTARIUS LIFE SCIENCE CORP., priority 2007, published 2009)
≈ marks a conversion by molar mass, not a printed value. Like-named read-outs stand apart in the source and are kept apart here.

How the values were obtained:
[1] = target: T1, Steroid 5-α-reductase isolated from liver of Wistar rat (Rattus norvegicus, UniProt P24008); test: Steroid 5-α-reductase inhibition (testosterone EIA); format: biochemical; details: rat liver enzyme, 1 μM testosterone, 30 minutes
T1 construct: isolated from liver of Wistar rat by conventional centrifugation; from tissue; host or cells: liver of Wistar rat
T1 sequence (P24008 1-259): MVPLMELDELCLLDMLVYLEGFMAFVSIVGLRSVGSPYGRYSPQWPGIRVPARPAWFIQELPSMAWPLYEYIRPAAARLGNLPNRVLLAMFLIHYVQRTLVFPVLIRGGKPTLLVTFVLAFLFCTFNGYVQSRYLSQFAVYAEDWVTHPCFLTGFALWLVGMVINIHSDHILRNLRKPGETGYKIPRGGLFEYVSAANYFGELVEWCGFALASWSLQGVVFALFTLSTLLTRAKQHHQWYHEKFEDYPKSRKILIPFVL
Source text: Steroid 5-α-reductase isolated from liver of Wistar rat by conventional centrifugation was used (Liang T, et. al., Endocrinology. 1985;117(2): 571-9).
The reaction was terminated by addition of 1 N HCl and neutrilized by 1 N NaOH. Testosterone was quantitated by using a Testosterone EIA Kit.

[2] = system: Propionibacterium acnes (ATCC 6919); test: Minimum inhibitory concentration (MIC), broth dilution method; format: cell-based
Description: Minimum inhibitory concentration (MIC) was determined by the broth dilution method (Edwards, J. R. et. al., Antimicrob Agents Chemother. 1989; 33(2):215-22).
10 ul aliquot (1% DMSO final concentration) of serial dilutions were added into 0.99 ml of Reinforced Clostridial Medium (Oxiod, England.) with 1-5×10^5 CFU/ml of Propionibacterium acnes (ATCC 6919). […] Vehicle-control and active reference agents were used as blank and positive controls, respectively.

[3] = target: T2, Human recombinant Cyclooxygenase-2 expressed in Sf21 cells (Homo sapiens, UniProt P35354); test: COX II inhibition (PGE2 EIA); format: biochemical; details: human recombinant enzyme, 0.3 μM arachidonic acid
T2 construct: purchased Sigma C-0858; host or cells: Sf21 cells
T2 sequence (P35354 18-604): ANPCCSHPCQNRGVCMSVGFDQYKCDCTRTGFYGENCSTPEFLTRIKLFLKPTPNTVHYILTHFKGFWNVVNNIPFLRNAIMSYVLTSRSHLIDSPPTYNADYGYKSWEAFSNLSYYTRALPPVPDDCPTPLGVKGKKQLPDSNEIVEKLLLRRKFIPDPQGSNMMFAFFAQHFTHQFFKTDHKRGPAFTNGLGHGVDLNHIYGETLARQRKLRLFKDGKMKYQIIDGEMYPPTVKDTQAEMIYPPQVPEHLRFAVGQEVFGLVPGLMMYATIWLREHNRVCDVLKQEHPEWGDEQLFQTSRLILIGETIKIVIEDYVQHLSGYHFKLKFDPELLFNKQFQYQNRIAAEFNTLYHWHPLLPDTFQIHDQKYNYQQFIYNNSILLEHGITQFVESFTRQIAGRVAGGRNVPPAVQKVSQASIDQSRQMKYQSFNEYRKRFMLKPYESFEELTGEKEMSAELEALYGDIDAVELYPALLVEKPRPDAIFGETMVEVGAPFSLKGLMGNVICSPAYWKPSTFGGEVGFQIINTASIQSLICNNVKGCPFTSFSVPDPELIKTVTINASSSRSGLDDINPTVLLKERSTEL
Description: The reaction was initiated by addition of 0.3 μM arachidonic acid for 5 minutes and terminated by further addition of 1 N HCl. Following centrifugation, substrate conversion to PGE2 was measured by an Amersham EIA kit.

[4] = Free radical scavenger, SOD mimetic activity (xanthine-xanthine oxidase / NBT reduction); format: biochemical; details: inhibition of NBT reduction, pH 10.5, 25° C., 20 minutes
Description: (§1) The method to measure SOD (SOD, EC.1.15.1.1) activity was based on the inhibition of nitroblue tetrazolium reduction with xanthine-xanthine oxidase used as a superoxide generator (Sun Y, et. al., Clin. Chem. 1988; 34: 497-500).
(§2) Conversion of xanthine to uric acid +O^−+NBT to formazan was then determined by measurement of absorbance at 595 nm and percent inhibition by superoxide dismutase mimetic or test compound was calculated.

[5] = target: xanthine-xanthine oxidase (superoxide generator); test: Superoxide dismutase (SOD) mimetic activity, inhibition of nitroblue tetrazolium reduction; format: biochemical; details: 0.12 mM xanthine, 6 mU xanthine oxidase, 27 μM NBT, pH 10.5, 25° C., 20 minutes
Description: as §1, §2

[6] = Cutibacterium acnes, ATCC6919, broth dilution, 37° C., 48 hours, anaerobic, read-out: MIC

In the case of `CCCCC/C=C\C/C=C\C/C=C\CCCCC(=O)O` [γ-Linolenic Acid], the IC50 [1] is reported as 14000 nM.

`CN[C@H](CC(C)C)C(=O)N[C@H]1C(=O)N[C@@H](CC(N)=O)C(=O)N[C@H]2C(=O)N[C@H]3C(=O)N[C@H](C(=O)N[C@H](C(=O)O)c4cc(O)cc(O)c4-c4cc3ccc4O)[C@H](O)c3ccc(c(Cl)c3)Oc3cc2cc(c3O[C@@H]2O[C@H](CO)[C@@H](O)[C@H](O)[C@H]2O[C@H]2C[C@](C)(N)[C@H](O)[C@H](C)O2)Oc2ccc(cc2Cl)[C@H]1O` [Vancomycin] gave an MIC ([2]; Cutibacterium acnes, ATCC6919, 48 h) of 1 µg/mL (≈ 0.69 µM).

With `O=C(O)c1cccnc1Nc1cccc(C(F)(F)F)c1` [Niflumic acid] the IC50 [3] was 691 nM.

`CC(C)(C)NC(=O)[C@H]1CC[C@H]2[C@@H]3CC[C@H]4NC(=O)C=C[C@]4(C)[C@H]3CC[C@]12C` [Finasteride] showed an IC50 [1] of 25 nM.

In the case of “Superoxide dismutase (SOD): standard reference agent used, Human SOD MW = 2 × 28.3 KDa”, the “IC50, SOD mimetic activity” value [4] is reported as 0.475 µg/mL.

Work on `CC1COc2c(N3CCN(C)CC3)c(F)cc3c(=O)c(C(=O)O)cn1c23` (centres unmarked) [Ofloxacin] yielded an MIC [2, 6] of 1 µg/mL (≈ 2.77 µM).

With Gentamicin the MIC ([2]; broth dilution, 37° C., 48 hours, anaerobic) was 30 µg/mL.

For `CN(C)[C@@H]1C(O)=C(C(N)=O)C(=O)[C@@]2(O)C(O)=C3C(=O)c4c(O)cccc4[C@@](C)(O)[C@H]3C[C@@H]12` [Tetracycline], the MIC [2, 6] was 1 µg/mL (≈ 2.25 µM).

Compound `CC1(C)S[C@@H]2[C@H](NC(=O)[C@H](N)c3ccccc3)C(=O)N2[C@H]1C(=O)O` [Ampicillin] has an MIC [2, 6] of 0.1 µg/mL (≈ 0.286 µM).

With `O=C(O[C@@H]1Cc2c(O)cc(O)cc2O[C@@H]1c1ccc(O)c(O)c1)c1cc(O)c(O)c(O)c1` [(−)-Epicatechin gallate] the IC50 [5] was 2.698 µg/mL (≈ 6.1 µM) and the “IC50, SOD mimetic activity” value [4] was 2.698 µg/mL (≈ 6.1 µM).
